Measurements taken from publication PMC9841523 (Journal of Medicinal Chemistry, 2022).
“Also recorded” adds a separate entry of the source.

Assays:
[1] = system: AKT S473 phosphorylation (mTORC2); test: AlphaLISA/MSD analysis of AKT phosphorylation in MDA-MB-468 cells; type: cell-based; details: Homo sapiens; MDA-MB-468 cells; read-out: pAKT IC50
Procedure: (§1) Cell culture and reagents. Cells were obtained from ATCC, grown in appropriate medium supplemented with 10% fetal bovine serum and 1% penicillin/streptomycin and maintained at 37 °C in a humidified incubator at 5% CO 2.
(§2) AlphaLISA and MesoScale Discovery (MSD) analysis of 4EBP1, S6K and AKT phosphorylation. mTOR substrate phosphorylation in MDA-MB-468 cells was assayed using AlphaLISA SureFire Ultra kits for p4EBP1 Thr37/46, p-P70S6K Thr389 and p-AKT1/2/3 Ser473 (PerkinElmer), and MSD Multi-Array Assay Systems for Phospho-4EBP1 (Thr37/46) and Phospho-AKT (Ser473) (MSD). Cells were seeded at 25,000 cells per well and exposed the next day to serial three-fold dilutions of compounds in complete medium with 0.1% dimethylsulfoxide (DMSO). After indicated incubation times, cells were lysed and AlphaLISA or MSD performed according to the manufacturers’ protocols. Samples were read using an EnVision Multilabel Plate Reader (PerkinElmer) using standard AlphaLISA settings or using an MSD plate reader. Data were plotted as a function of logM [compound] with a sigmoidal concentration response (variable slope) model fitted to the data to estimate the inhibitor half-maximum effective concentration (EC 50) in Prism 7 (GraphPad). Alternatively, results were analyzed as percentage of control in which 0% was set as signal from 1 μM Torin1 and 100% was set as the mean of DMSO wells on each plate, and inhibitor EC 50 was estimated as described

[2] = system: Candida albicans; details: 10 strains of yeast Candida albicans; cited from earlier work
[3] = biological target: T1, FKBP12 (Homo sapiens, UniProt P62942); test: FKBP12 binding affinity, fluorescent probe displacement assay
T1 construct: Proteros biostructures GmbH (ran the assay)
Procedure: Thermo Fisher Scientific catalog no. A15112) in 50 mM HEPES pH 7.5, 0.01% polysorbate 20, 1 mM EGTA and 10 mM MnCl 2. Compounds were diluted in DMSO, and assay was initiated by mixing 160 nl of compound with 16 μL of assay mixture, resulting in a final DMSO
concentration of 1%. Reactions were mixed for 30 s on an orbital shaker and incubated for 1 h at

[4] = system: 4EBP1 T37/T46 phosphorylation (mTORC1); test: AlphaLISA/MSD analysis of 4EBP1 phosphorylation in MDA-MB-468 cells; type: cell-based; details: Homo sapiens; MDA-MB-468 cells; read-out: p4EBP1 IC50
Procedure: as §1, §2

[5] = biological target: T2, FKBP12-FRB (Homo sapiens, UniProt P42345+P62942); test: TR-FRET ternary complex assay; type: binding; details: at the assay detection limit
T2 construct: human mTOR (residues 1360-2549); purchased Thermo Fisher Scientific (ran the assay)
Procedure: Proteros biostructures GmbH, using a fluorescent probe displacement assay. […]
same conditions, with 6 nM fluorescent probe present. 50 nL compound in DMSO was added to […]
11 different concentrations of compound with a 3-fold dilution factor were tested. After a 6 h incubation at room temperature acceptor fluorescence was read on a plate reader. […]
displacement) were calculated using standard fitting algorithms. The reporter probe is used at a concentration reflecting the tenfold concentration of its own Kd (probe) value. Thus, according to the Cheng Prusoff equation, the Kd value can be calculated with Kd = IC 50 / (1 + (([10 x Kd probe]) / [Kd probe]) = IC 50 / 11.
TR–FRET ternary complex assay. Assay was performed by Thermo Fisher Scientific, using a modification of a previously described protocol. 1 A homogeneous assay mixture was prepared […]
Thermo Fisher Scientific catalog no. A15112) in 50 mM HEPES pH 7.5, 0.01% polysorbate 20, 1 mM EGTA and 10 mM MnCl 2. […]
Nanosyn Lipid Kinase screen. Biochemical inhibition of lipid and related protein kinases was determined by Nanosyn (Santa Clara, CA). […]
was determined by detection of fluorescent substrates using a microfluidic electrophoresis mobility shift assay with a LabChip3000 instrument (Caliper/PerkinElmer). […]

[6] = system: p-P70S6K Thr389; test: AlphaLISA/MSD analysis of S6K phosphorylation in MDA-MB-468 cells; type: cell-based; details: MDA-MB-468 cells
Procedure: as §1, §2

[7] = system: NCI-H2122 NSCLC CDX; test: NCI-H2122 NSCLC CDX model; type: in vivo; details: RMC-6272 10 mg/kg ip once weekly; sotorasib 100 mg/kg po qd; single agents or combination
Procedure: groups when mean tumor volume reached 400–600 mm 3. Tumor and plasma samples were collected for PK and PD analysis at indicated time points after a single dose of indicated […]
doses. Everolimus was formulated in v/v/v/, 30/5/65 Propylene glycol/Tween 80/H 2O.
NCI-H2122 xenograft studies. Female Balb/c nude mice (Beijing V.R Biotechnology Co. […]
per inoculation. When mean tumor volume reached between 150–200 mm 3, mice were […]
Transcutol/Solutol HS 15/H 2O. Sotorasib (AMG 510) was administered by oral gavage at 100 mg/kg daily and formulated in 2% (w/v) HPMC E-50, 0.5% Tween 80 in 50 mM sodium citrate […]
In vivo pharmacodynamics. Snap frozen tumors collected were homogenized with MSD complete lysis buffer (as prepared according to Meso Scale Discovery kit protocol) using PreCellys Bead Shaker (Bertin Instruments) according to manufacturer's protocol. Phospho-4E-BP1(Thr37/46) Whole Cell Lysate Kit (Meso Scale Discovery) was used to quantify phosphorylation of 4E-BP1 in the tumors according to manufacturer's protocol.
Expression and purification of FKBP12, FRB domain, and RHEB-GTPγS. DNA pET28

T1 sequence (P62942 whole entry): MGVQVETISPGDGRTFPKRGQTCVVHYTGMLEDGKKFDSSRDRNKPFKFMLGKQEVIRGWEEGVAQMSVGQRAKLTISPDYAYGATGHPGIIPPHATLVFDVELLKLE
T2 sequence (P62942 whole entry, the tested form may be a part): as the sequence (P62942 whole entry) above
T2 sequence (P42345 1360-2549 limits assumed): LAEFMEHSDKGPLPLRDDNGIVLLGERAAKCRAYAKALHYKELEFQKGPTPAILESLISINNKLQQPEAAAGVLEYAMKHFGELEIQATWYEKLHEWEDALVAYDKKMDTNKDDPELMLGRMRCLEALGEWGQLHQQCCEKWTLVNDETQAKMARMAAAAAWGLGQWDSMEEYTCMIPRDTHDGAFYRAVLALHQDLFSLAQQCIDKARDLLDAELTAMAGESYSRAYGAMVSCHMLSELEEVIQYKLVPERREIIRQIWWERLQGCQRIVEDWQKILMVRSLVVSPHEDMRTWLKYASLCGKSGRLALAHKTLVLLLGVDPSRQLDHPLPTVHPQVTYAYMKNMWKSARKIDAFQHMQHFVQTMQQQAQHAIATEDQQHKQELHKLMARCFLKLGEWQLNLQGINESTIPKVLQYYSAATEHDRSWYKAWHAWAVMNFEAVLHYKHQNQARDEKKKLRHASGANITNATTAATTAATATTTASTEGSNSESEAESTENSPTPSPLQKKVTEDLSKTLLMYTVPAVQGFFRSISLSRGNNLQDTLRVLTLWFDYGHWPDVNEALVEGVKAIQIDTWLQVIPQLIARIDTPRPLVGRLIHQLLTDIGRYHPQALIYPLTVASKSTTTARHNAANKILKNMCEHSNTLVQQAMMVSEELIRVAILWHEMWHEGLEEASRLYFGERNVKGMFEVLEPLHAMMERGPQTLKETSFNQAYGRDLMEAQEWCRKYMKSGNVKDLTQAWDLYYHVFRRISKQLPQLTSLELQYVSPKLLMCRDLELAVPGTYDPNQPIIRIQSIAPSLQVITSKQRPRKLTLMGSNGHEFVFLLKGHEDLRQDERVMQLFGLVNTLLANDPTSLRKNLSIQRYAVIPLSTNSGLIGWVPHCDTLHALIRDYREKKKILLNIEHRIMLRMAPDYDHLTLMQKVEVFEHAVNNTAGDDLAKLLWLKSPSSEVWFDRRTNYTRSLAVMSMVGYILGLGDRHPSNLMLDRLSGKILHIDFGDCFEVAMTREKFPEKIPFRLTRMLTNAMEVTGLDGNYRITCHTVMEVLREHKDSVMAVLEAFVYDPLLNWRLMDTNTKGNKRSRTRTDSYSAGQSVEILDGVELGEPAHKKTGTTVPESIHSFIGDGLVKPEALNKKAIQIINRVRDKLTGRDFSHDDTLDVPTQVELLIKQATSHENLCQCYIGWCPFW

**Q.** Which results are given for `CO[C@H]1C[C@@H]2CC[C@@H](C)[C@@](O)(O2)C(=O)C(=O)N2CCCC[C@H]2C(=O)O[C@H]([C@H](C)C[C@@H]2CC[C@@H](O)[C@H](OC)C2)CC(=O)[C@H](C)/C=C(\C)[C@@H](O)[C@@H](OC)C(=O)[C@H](C)C[C@H](C)/C=C/C=C/C=C/1C` [compound 1, Rapamycin, reference compound]?
**A.** IC50 [1]: > 1000 nM; minimum inhibitory concentration [2]: 0.02 to 0.2 µg/mL

**Q.** Which Kd [3] does the source give for `CO[C@H]1C[C@@H]2CC[C@@H](C)[C@@](O)(O2)C(=O)C(=O)N2CCCC[C@H]2C(=O)O[C@H]([C@H](C)C[C@@H]2CC[C@@H](O)[C@H](OC)C2)C[C@@H](O)[C@H](C)/C=C(\C)[C@@H](O)[C@@H](OC)C(=O)[C@H](C)C[C@H](C)/C=C/C=C/C=C/1C` [compound 11, C32-hydroxy rapamycin] here?
**A.** 13.3 nM

**Q.** Which IC50 [1] does the source give for `CO[C@H]1C[C@@H]2CC[C@@H](C)[C@@](O)(O2)C(=O)C(=O)N2CCCC[C@H]2C(=O)O[C@H]([C@H](C)C[C@@H]2CC[C@@H](O)[C@H](OC)C2)C[C@@H](OC)[C@H](C)/C=C(\C)[C@@H](O)[C@@H](OC)C(=O)[C@H](C)C[C@H](C)/C=C/C=C/C=C/1C` [compound 12, C32-methoxy rapamycin] here?
**A.** > 1000 nM

**Q.** What about the Kd [3] of the same molecule?
**A.** 701 nM

**Q.** And the “decrease in affinity for FKBP12 relative to rapamycin 1” value [3]?
**A.** ~1600 fold

**Q.** What about the IC50 [4] of the same molecule?
**A.** > 1000 nM

**Q.** And the EC50 [5]?
**A.** < 10 nM

**Q.** And the IC50 ([6]; Homo sapiens, read-out: pS6K IC50)?
**A.** 0.37 nM

**Q.** And the “decrease in potency (pS6K) relative to rapamycin 1” value [6]?
**A.** 6 fold

**Q.** Which “antitumor activity (tumor regressions) in NCI-H2122 CDX model” value [7] does the source give for `C=CC(=O)N1CCN(c2nc(=O)n(-c3c(C)ccnc3C(C)C)c3nc(-c4c(O)cccc4F)c(F)cc23)[C@@H](C)C1` [sotorasib] here?
**A.** Neither; also recorded: only modest inhibition of tumor growth
